The target in one data set is GLP-1 Receptor (Homo sapiens, UniProt P43220). Kind of data set: Functional assay-cAMP synthesis (luciferase reporter, HEK293), GLP-1 receptor. For orientation: Reporter assays use an easily measured gene product as a stand-in for the process of interest.
Data set [1] is described as follows: Glucagon solubility assay. It counts as physicochemical.
Another data set concerns the target Glucagon Receptor (Homo sapiens, UniProt P47871). Kind of data set: Functional assay-cAMP synthesis (luciferase reporter, HEK293), glucagon receptor. The settings on record: for % activity*: glucagon receptor.

Square brackets hold non-standard residues; d marks the D form. Ends that are not written are not given here. Peptide text beside a SMILES is read from it. Dab = NCC[C@H](N)C(=O)O; Aib = CC(C)(N)C(=O)O

Sequence of Glucagon Receptor (P47871 26-477): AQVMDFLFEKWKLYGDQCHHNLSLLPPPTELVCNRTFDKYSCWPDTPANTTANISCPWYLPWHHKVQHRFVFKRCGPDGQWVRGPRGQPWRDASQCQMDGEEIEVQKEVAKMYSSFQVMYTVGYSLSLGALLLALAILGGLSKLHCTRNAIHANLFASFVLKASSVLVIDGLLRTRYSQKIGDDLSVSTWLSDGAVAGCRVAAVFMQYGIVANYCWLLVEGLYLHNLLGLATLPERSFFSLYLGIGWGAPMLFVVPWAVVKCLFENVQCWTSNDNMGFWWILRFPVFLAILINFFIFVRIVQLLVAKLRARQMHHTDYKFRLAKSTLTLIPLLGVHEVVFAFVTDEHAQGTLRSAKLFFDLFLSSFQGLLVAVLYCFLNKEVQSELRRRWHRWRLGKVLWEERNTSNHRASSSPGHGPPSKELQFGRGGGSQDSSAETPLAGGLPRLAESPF
Sequence of GLP-1 Receptor (P43220 24-463, species assumed): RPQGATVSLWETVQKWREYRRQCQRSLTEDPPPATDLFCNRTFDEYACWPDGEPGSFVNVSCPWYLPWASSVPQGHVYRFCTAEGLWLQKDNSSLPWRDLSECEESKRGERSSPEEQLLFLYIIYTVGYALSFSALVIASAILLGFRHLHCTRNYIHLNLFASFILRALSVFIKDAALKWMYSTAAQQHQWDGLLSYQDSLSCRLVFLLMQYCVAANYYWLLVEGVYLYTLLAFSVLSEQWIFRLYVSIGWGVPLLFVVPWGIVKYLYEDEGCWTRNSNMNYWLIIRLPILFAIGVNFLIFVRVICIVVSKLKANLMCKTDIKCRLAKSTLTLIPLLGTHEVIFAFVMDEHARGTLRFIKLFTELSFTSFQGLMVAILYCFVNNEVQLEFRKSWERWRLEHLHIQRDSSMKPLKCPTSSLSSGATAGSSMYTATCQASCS

By EC50 is commonly meant the midpoint of the concentration-response curve. Higher therefore signals weaker potency. Turning to `CCCCCCCCCCCCCCCC(=O)NCCCC[C@H](NC(=O)[C@H](CC(=O)O)NC(=O)[C@H](CO)NC(=O)[C@@H](NC(=O)[C@H](Cc1ccccc1)NC(=O)[C@@H](NC(=O)CNC(=O)[C@H](CCC(N)=O)NC(=O)[C@@H](CO)NC(=O)[C@@H](N)Cc1c[nH]cn1)[C@@H](C)O)[C@@H](C)O)C(=O)N[C@@H](CO)C(=O)N[C@@H](CCCCN)C(=O)N[C@@H](Cc1ccc(O)cc1)C(=O)N[C@@H](CC(C)C)C(=O)N[C@@H](CC(=O)O)C(=O)N[C@@H](CCC(=O)O)C(=O)N[C@@H](CCCNC(=N)N)C(=O)N[C@@H](CCCNC(=N)N)C(=O)N[C@@H](C)C(=O)N[C@@H](CCCCN)C(=O)N[C@@H](CC(=O)O)C(=O)N[C@@H](Cc1ccccc1)C(=O)N[C@H](C(=O)N[C@@H](CCC(N)=O)C(=O)N[C@@H](Cc1c[nH]c2ccccc12)C(=O)N[C@@H](CC(C)C)C(=O)N[C@@H](CCSC)C(=O)N[C@@H](CC(N)=O)C(=O)N[C@H](C(N)=O)[C@@H](C)O)C(C)C` [Peptide dS2K10(C16)E16K20-Gluc Amide, HXQGTFTSDKSKYLDERRAKDFVQWLMNT-amide], the half-maximal effective concentration (EC50) on GLP-1 Receptor was 0.041 nM.

“Glucagon, Cys17PEG5K: Glucagon Cys17(1-29) reacted with methoxy poly(ethyleneglycol) maleimide avg. M.W.5000”: the “Percent Soluble” value in data set [1] (pH 7) was 94%. For `CCCC[C@H](NC(=O)[C@H](CC(C)C)NC(=O)[C@H](Cc1c[nH]c2ccccc12)NC(=O)[C@H](C)NC(=O)[C@@H](NC(=O)[C@H](Cc1ccccc1)NC(=O)[C@H](CCC(=O)O)NC(=O)[C@H](C)NC(=O)[C@H](C)NC(=O)[C@H](CCCNC(=N)N)NC(=O)[C@H](CCCNC(=N)N)NC(=O)[C@@H](NC(=O)[C@H](CC(=O)O)NC(=O)[C@H](CC(C)C)NC(=O)[C@H](Cc1ccc(O)cc1)NC(=O)[C@H](CCCCN)NC(=O)[C@H](CO)NC(=O)[C@H](Cc1ccc(O)cc1)NC(=O)[C@H](CC(=O)O)NC(=O)[C@H](CO)NC(=O)[C@@H](NC(=O)[C@H](Cc1ccccc1)NC(=O)[C@@H](NC(=O)CNC(=O)[C@H](CC[S+](C)[O-])NC(=O)[C@H](CO)NC(=O)[C@@H](N)Cc1c[nH]cn1)[C@@H](C)O)[C@@H](C)O)[C@@H](C)O)C(C)C)C(=O)N[C@@H](CC(=O)O)C(=O)N[C@@H](CCC(=O)O)C(=O)O` (stereo partly shown) [SEQ ID NO: 66], the “% activity*” value at Glucagon Receptor (Table 7) was 7%. For `CCCCCCCCCCCCCC(=O)NCCCC[C@H](NC(=O)[C@H](CC(=O)O)NC(=O)[C@H](CO)NC(=O)[C@@H](NC(=O)[C@H](Cc1ccccc1)NC(=O)[C@@H](NC(=O)CNC(=O)[C@H](CCC(N)=O)NC(=O)[C@@H](CO)NC(=O)[C@@H](N)Cc1c[nH]cn1)[C@@H](C)O)[C@@H](C)O)C(=O)N[C@@H](CO)C(=O)N[C@@H](CCCCN)C(=O)N[C@@H](Cc1ccc(O)cc1)C(=O)N[C@@H](CC(C)C)C(=O)N[C@@H](CC(=O)O)C(=O)N[C@@H](CCC(=O)O)C(=O)N[C@@H](CCCNC(=N)N)C(=O)N[C@@H](CCCNC(=N)N)C(=O)N[C@@H](C)C(=O)N[C@@H](CCCCN)C(=O)N[C@@H](CC(=O)O)C(=O)N[C@@H](Cc1ccccc1)C(=O)N[C@H](C(=O)N[C@@H](CCC(N)=O)C(=O)N[C@@H](Cc1c[nH]c2ccccc12)C(=O)N[C@@H](CC(C)C)C(=O)N[C@@H](CCSC)C(=O)N[C@@H](CC(N)=O)C(=O)N[C@H](C(N)=O)[C@@H](C)O)C(C)C` [Peptide dS2K10(C14)E16K20-Gluc Amide, HXQGTFTSDKSKYLDERRAKDFVQWLMNT-amide], at GLP-1 Receptor, the concentration giving a half-maximal response (EC50) is 0.041 nM.

Consider `CSCC[C@H](NC(=O)[C@H](CC(C)C)NC(=O)[C@H](Cc1c[nH]c2ccccc12)NC(=O)[C@H](C)NC(=O)[C@@H](NC(=O)[C@H](Cc1ccccc1)NC(=O)[C@H](CC(=O)O)NC(=O)[C@H](C)NC(=O)[C@H](C)NC(=O)[C@H](CCCNC(=N)N)NC(=O)[C@H](CCCNC(=N)N)NC(=O)C(C)(C)NC(=O)[C@H](CC(=O)O)NC(=O)[C@H](CC(C)C)NC(=O)[C@H](Cc1ccc(O)cc1)NC(=O)[C@H](CCCCN)NC(=O)[C@H](CO)NC(=O)[C@H](Cc1ccc(O)cc1)NC(=O)[C@H](CC(=O)O)NC(=O)[C@H](CO)NC(=O)[C@@H](NC(=O)[C@H](Cc1ccccc1)NC(=O)[C@@H](NC(=O)CNC(=O)[C@H](CCNC(C)=O)NC(=O)[C@H](CO)NC(=O)[C@@H](N)Cc1c[nH]cn1)[C@@H](C)O)[C@@H](C)O)C(C)C)C(=O)N[C@@H](CC(=O)O)C(=O)N[C@@H](CCC(=O)O)C(=O)O` [SEQ ID NO: 69], for which, on Glucagon Receptor (Table 7), the “% activity*” value was determined as 86%.

Take “HSQGTFTSDYSKYLESRRAQDFVQWLMDT [D28, E15]”: the “solubility relative to native glucagon” value in data set [1] (pH values of 5.5 and 7.0, FIGS. 3 & 4) was “superior solubility”.

For the molecule `CSCC[C@H](NC(=O)[C@H](CC(C)C)NC(=O)[C@H](Cc1c[nH]c2ccccc12)NC(=O)[C@H](CCC(N)=O)NC(=O)[C@@H](NC(=O)[C@H](Cc1ccccc1)NC(=O)[C@H](CC(=O)O)NC(=O)[C@H](CCC(N)=O)NC(=O)[C@H](C)NC(=O)[C@H](CCCNC(=N)N)NC(=O)[C@H](CCCNC(=N)N)NC(=O)C(C)(C)NC(=O)[C@H](CC(=O)O)NC(=O)[C@H](CC(C)C)NC(=O)[C@H](Cc1ccc(O)cc1)NC(=O)[C@H](CCCCN)NC(=O)[C@H](CO)NC(=O)[C@H](Cc1ccc(O)cc1)NC(=O)[C@H](CC(=O)O)NC(=O)[C@H](CO)NC(=O)[C@@H](NC(=O)[C@H](Cc1ccccc1)NC(=O)[C@@H](NC(=O)CNC(=O)[C@H](CCC(N)=O)NC(=O)[C@H](CO)NC(=O)[C@@H](N)Cc1c[nH]cn1)[C@@H](C)O)[C@@H](C)O)C(C)C)C(=O)N[C@@H](CC(=O)O)C(=O)N[C@@H](CCC(=O)O)C(=O)O` [AIB16/D28/E29 Glucagon] (H-HSQGTFTSDYSKYLD[Aib]RRAQDFVQWLMDE-OH; N-terminus and C-terminus assumed), at Glucagon Receptor (EC50 at the glucagon receptor, Example 20), the EC50 worked out at 0.08 nM.

For `CC(=O)NCC[C@H](NC(=O)[C@H](CO)NC(=O)[C@@H](N)Cc1c[nH]cn1)C(=O)NCC(=O)N[C@H](C(=O)N[C@@H](Cc1ccccc1)C(=O)N[C@H](C(=O)N[C@@H](CO)C(=O)N[C@@H](CC(=O)O)C(=O)N[C@@H](Cc1ccc(O)cc1)C(=O)N[C@@H](CO)C(=O)N[C@@H](CCCCN)C(=O)N[C@@H](Cc1ccc(O)cc1)C(=O)N[C@@H](CC(C)C)C(=O)N[C@@H](CC(=O)O)C(=O)NC(C)(C)C(=O)N[C@@H](CCCNC(=N)N)C(=O)N[C@@H](CCCNC(=N)N)C(=O)N[C@@H](C)C(=O)N[C@H](C(=O)N[C@@H](CC(=O)O)C(=O)N[C@@H](Cc1ccccc1)C(=O)N[C@H](C(=O)N[C@H](C(=O)N[C@@H](Cc1c[nH]c2ccccc12)C(=O)N[C@@H](CC(C)C)C(=O)N[C@@H](CC(C)C)C(=O)N[C@@H](CC(=O)O)C(=O)N[C@@H](CCC(=O)O)C(=O)O)[C@@H](C)O)C(C)C)[C@@H](C)O)[C@@H](C)O)[C@@H](C)O` [SEQ ID NO: 74] (H-HS[Dab](Ac)GTFTSDYSKYLD[Aib]RRATDFVTWLLDE-OH; N-terminus and C-terminus assumed), at Glucagon Receptor (Table 8, wildtype glucagon = 100), the “% activity*” value worked out at 46%.

The molecule `CCCCCCCCCCCCCCCC(=O)NCCCCCC(=O)NCCCC[C@H](NC(=O)[C@H](CC(=O)O)NC(=O)[C@H](CO)NC(=O)[C@@H](NC(=O)[C@H](Cc1ccccc1)NC(=O)[C@@H](NC(=O)CNC(=O)[C@H](CCC(N)=O)NC(=O)C(C)(C)NC(=O)[C@@H](N)Cc1c[nH]cn1)[C@@H](C)O)[C@@H](C)O)C(=O)N[C@@H](CO)C(=O)N[C@@H](CCCCN)C(=O)N[C@@H](Cc1ccc(O)cc1)C(=O)N[C@@H](CC(C)C)C(=O)N[C@@H](CC(=O)O)C(=O)NC(C)(C)C(=O)N[C@@H](CCCNC(=N)N)C(=O)N[C@@H](CCCNC(=N)N)C(=O)N[C@@H](C)C(=O)N[C@@H](CCC(N)=O)C(=O)N[C@@H](CC(=O)O)C(=O)N[C@@H](Cc1ccccc1)C(=O)N[C@H](C(=O)N[C@@H](CCC(N)=O)C(=O)N[C@@H](Cc1c[nH]c2ccccc12)C(=O)N[C@@H](CC(C)C)C(=O)N[C@@H](CCSC)C(=O)N[C@@H](CC(N)=O)C(=O)N[C@H](C(N)=O)[C@@H](C)O)C(C)C` [Peptide 85, HXQGTFTSDKSKYLDXRRAQDFVQWLMNT-NH2] registered an EC50 at Glucagon Receptor (EC50 at Glucagon Receptor (nM), Table 10) of 0.01 nM.

As for `CCCC[C@H](NC(=O)[C@H](CC(C)C)NC(=O)[C@H](Cc1c[nH]c2ccccc12)NC(=O)[C@H](C)NC(=O)[C@@H](NC(=O)[C@H](Cc1ccccc1)NC(=O)[C@H](CCC(=O)O)NC(=O)[C@H](C)NC(=O)[C@H](C)NC(=O)[C@H](CCCNC(=N)N)NC(=O)[C@H](CCCNC(=N)N)NC(=O)[C@@H](NC(=O)[C@H](CC(=O)O)NC(=O)[C@H](CC(C)C)NC(=O)[C@H](Cc1ccc(O)cc1)NC(=O)[C@H](CCCCN)NC(=O)[C@H](CO)NC(=O)[C@H](Cc1ccc(O)cc1)NC(=O)[C@H](CC(=O)O)NC(=O)[C@H](CO)NC(=O)[C@@H](NC(=O)[C@H](Cc1ccccc1)NC(=O)[C@@H](NC(=O)CNC(=O)[C@H](CCNC(C)=O)NC(=O)[C@H](CO)NC(=O)[C@@H](N)Cc1c[nH]cn1)[C@@H](C)O)[C@@H](C)O)[C@@H](C)O)C(C)C)C(=O)N[C@@H](CC(=O)O)C(=O)N[C@@H](CCC(=O)O)C(=O)O` [SEQ ID NO: 63], the “% activity*” value at Glucagon Receptor (Table 7) is 19%.
